Results taken from patent publication US9029391B2 (priority 2011, dated 2015).
Counter-ions that a name gives are not always drawn.

Test system: HIV
Experiment: MT4 Assay (anti-HIV activity)
Type: cell-based
Settings: Human immunodeficiency virus 1, 96 h, read-out: HIV MT4 Assay IC50, HTLV-1 transformed cell line MT-4, cell titer glo, 10 point dose response curve
Method in brief: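 MT-4 cells (HTLV-1 transformed) were used for antiviral activity and cytotoxicity, run in parallel, with luminescence read by CellTiter-Glo 96 hours later. Percent inhibition was expressed against the no-compound control. IC50s came from 10-point curves of 3-4-fold serial dilutions spanning >1000-fold.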

| SMILES | IC50 [nM] |
| --- | --- |
| Cc1c(-c2c([C@H](OC(C)(C)C)C(=O)O)n(C)c(=O)c3cc(-c4cnn(CCC(C)C)c4)ccc23)cc(F)c2c1CCCO2 (atropisomer, axis not shown; (M)) [Example 201, (2S)(M)-[(1,1-dimethylethyl)oxy]{4-(8-fluoro-5-methyl-3,4-dihydro-2H-chromen-6-yl)-2-methyl-7-[1-(3-methylbutyl)-1H-pyrazol-4-yl]-1-oxo-1,2-dihydro-3-isoquinolinyl}ethanoic acid] | 40 |
| Cc1c(-c2c(C(OC(C)(C)C)C(=O)O)n(C)c(=O)c3cc(OCCN4CCCC4)ccc23)ccc2c1CCCO2 (stereo not shown) [Example 117, 2-(tert-butoxy)-2-[2-methyl-4-(5-methyl-3,4-dihydro-2H-1-benzopyran-6-yl)-1-oxo-7-[2-(pyrrolidin-1-yl)ethoxy]-1,2-dihydroisoquinolin-3-yl]acetic acid] | 4090 |
| COc1ccc(-c2c(C(OC(C)(C)C)C(=O)O)n(C)c(=O)c3ccccc23)c(C)c1 (stereo not shown) [Example 31, 2-(tert-butoxy)-2-[4-(4-methoxy-2-methylphenyl)-2-methyl-1-oxo-1,2-dihydroisoquinolin-3-yl]acetic acid] | 1720 |
| COc1cc2c(=O)n(C)c(C(OC(C)(C)C)C(=O)O)c(-c3ccc4c(c3C)CCCO4)c2cc1C (stereo not shown) [Example 120, 2-(tert-butoxy)-2-[7-methoxy-2,6-dimethyl-4-(5-methyl-3,4-dihydro-2H-1-benzopyran-6-yl)-1-oxo-1,2-dihydroisoquinolin-3-yl]acetic acid] | 230 |
| COc1ccc(Cc2ccc3c(-c4ccc(C)c(C)c4)c(C(OC(C)(C)C)C(=O)O)n(C)c(=O)c3c2)cc1 (stereo not shown) [Example 171, [(1,1-dimethylethyl)oxy](4-(3,4-dimethylphenyl)-2-methyl-7-{[4-(methyloxy)phenyl]methyl}-1-oxo-1,2-dihydro-3-isoquinolinyl)acetic acid] | 1300 |
| Cc1ccc(-c2c(C(OC(C)(C)C)C(=O)O)n(C)c(=O)c3cc(F)ccc23)cc1C (stereo not shown) [Example 87, 2-(tert-butoxy)-2-[4-(3,4-dimethylphenyl)-7-fluoro-2-methyl-1-oxo-1,2-dihydroisoquinolin-3-yl]acetic acid] | 740 |
| Cc1c(-c2c([C@H](OC3(C)CCC3)C(=O)O)n(C)c(=O)c3ccccc23)cc(F)c2c1CCCO2 (atropisomer, axis not shown; (M)) [Example 163, (2S)(M)-2-[4-(8-fluoro-5-methyl-3,4-dihydro-2H-1-benzopyran-6-yl)-2-methyl-1-oxo-1,2-dihydroisoquinolin-3-yl]-2-(1-methylcyclobutoxy)acetic acid] | 110 |
| Cc1c(-c2c(C(OC(C)(C)C)C(=O)O)n(C)c(=O)c3ccc(F)cc23)ccc2c1CCCO2 (stereo not shown) [Example 69, 2-(tert-butoxy)-2-[6-fluoro-2-methyl-4-(5-methyl-3,4-dihydro-2H-1-benzopyran-6-yl)-1-oxo-1,2-dihydroisoquinolin-3-yl]acetic acid] | 570 |
| Cc1c(-c2c([C@H](OC(C)(C)C)C(=O)O)n(C)c(=O)c3cc(CN4CCCCC4)ccc23)cc(F)c2c1CCCO2 (atropisomer, axis not shown; (M)) [Example 190, (S)(M)-2-(tert-butoxy)-2-(4-(8-fluoro-5-methylchroman-6-yl)-2-methyl-1-oxo-7-(piperidin-1-ylmethyl)-1,2-dihydroisoquinolin-3-yl)acetic acid, Trifluoroacetic acid salt] | 320 |
| CCc1c(-c2c(C(OC(C)(C)C)C(=O)O)n(C)c(=O)c3ccccc23)ccc2c1CCCO2 (stereo not shown) [Example 121, 2-(tert-butoxy)-2-[4-(5-ethyl-3,4-dihydro-2H-1-benzopyran-6-yl)-2-methyl-1-oxo-1,2-dihydroisoquinolin-3-yl]acetic acid] | 940 |
| Cc1c(-c2c([C@H](OC(C)(C)C)C(=O)O)n(C)c(=O)c3cc(OCc4ccc(F)cc4F)ccc23)cc(F)c2c1CCCO2 [Example 107, (2S)-2-(tert-butoxy)-2-{7-[(2,4-difluorophenyl)methoxy]-4-(8-fluoro-5-methyl-3,4-dihydro-2H-1-benzopyran-6-yl)-2-methyl-1-oxo-1,2-dihydroisoquinolin-3-yl}acetic acid] | 20 |
| Cc1ccc(-c2c(C(OC(C)(C)C)C(=O)O)n(C)c(=O)c3cc(CNS(=O)(=O)N(C)C)ccc23)cc1C (stereo not shown) [Example 188, 2-(tert-butoxy)-2-(4-(3,4-dimethylphenyl)-7-(((N,N-dimethylsulfamoyl)amino)methyl)-2-methyl-1-oxo-1,2-dihydroisoquinolin-3-yl)acetic acid] | 3700 |
| Cc1c(-c2c([C@H](OC(C)(C)C)C(=O)O)n(C)c(=O)c3cc(OCCF)ccc23)ccc2c1CCCO2 [Example 141, (2S)-2-(tert-butoxy)-2-[7-(2-fluoroethoxy)-2-methyl-4-(5-methyl-3,4-dihydro-2H-1-benzopyran-6-yl)-1-oxo-1,2-dihydroisoquinolin-3-yl]acetic acid] | 30 |
| Cn1c(C(OC(C)(C)C)C(=O)O)c(-c2cccc3ccccc23)c2ccccc2c1=O (stereo not shown) [Example 29, 2-(tert-butoxy)-2-[2-methyl-4-(naphthalen-1-yl)-1-oxo-1,2-dihydroisoquinolin-3-yl]acetic acid] | 8300 |
| Cc1ccc(-c2c(C(OC(C)(C)C)C(=O)O)n(C)c(=O)c3cc(CNC(=O)C(=O)O)ccc23)cc1C (stereo not shown) [Example 186, 2-(tert-butoxy)-2-(7-((carboxyformamido)methyl)-4-(3,4-dimethylphenyl)-2-methyl-1-oxo-1,2-dihydroisoquinolin-3-yl)acetic acid] | 50000 |
| Cc1c(-c2c([C@H](OC(C)(C)C)C(=O)O)n(C)c(=O)c3cc(-c4ccc(F)cc4)ccc23)cc(F)c2c1CCCO2 (atropisomer, axis not shown; (M)) [Example 209, (S)(M)-2-(tert-butoxy)-2-(4-(8-fluoro-5-methylchroman-6-yl)-7-(4-fluorophenyl)-2-methyl-1-oxo-1,2-dihydroisoquinolin-3-yl)acetic acid] | 20 |
| Cn1c(C(OC(C)(C)C)C(=O)O)c(-c2cccc(C(F)(F)F)c2)c2ccccc2c1=O (stereo not shown) [Example 13, 2-(tert-butoxy)-2-{2-methyl-1-oxo-4-[3-(trifluoromethyl)phenyl]-1,2-dihydroisoquinolin-3-yl}acetic acid] | 23800 |
| Cc1ccc(-c2c(C(CC(C)C)C(=O)O)n(C)c(=O)c3ccccc23)c(C)c1 (stereo not shown) [Example 217, 2-[4-(2,4-dimethylphenyl)-2-methyl-1-oxo-1,2-dihydro-3-isoquinolinyl]-4-methylpentanoic acid] | 13000 |
| Cc1c(-c2c(C(OC(C)(C)C)C(=O)O)n(C)c(=O)c3ccc(F)cc23)cc(F)c2c1CCCO2 (stereo not shown) [Example 91, 2-(tert-butoxy)-2-[6-fluoro-4-(8-fluoro-5-methyl-3,4-dihydro-2H-1-benzopyran-6-yl)-2-methyl-1-oxo-1,2-dihydroisoquinolin-3-yl]acetic acid] | 440 |
| Cn1c(C(OC(C)(C)C)C(=O)O)c(-c2ccc3c(c2)CCCO3)c2ccc(F)cc2c1=O (stereo not shown) [Example 57, 2-(tert-butoxy)-2-[4-(3,4-dihydro-2H-1-benzopyran-6-yl)-7-fluoro-2-methyl-1-oxo-1,2-dihydroisoquinolin-3-yl]acetic acid] | 1650 |
| Cc1c(-c2c(C(OC(C)(C)C)C(=O)O)n(C)c(=O)c3cc(OCCN(C)C)ccc23)ccc2c1CCCO2 (stereo not shown) [Example 85, 2-(tert-butoxy)-2-{7-[2-(dimethylamino)ethoxy]-2-methyl-4-(5-methyl-3,4-dihydro-2H-1-benzopyran-6-yl)-1-oxo-1,2-dihydroisoquinolin-3-yl}acetic acid] | 7630 |
| Cc1c(-c2c(C(OC(C)(C)C)C(=O)O)n(C)c(=O)c3cc(OCc4ccccc4F)ccc23)ccc2c1CCCO2 (stereo not shown) [Example 103, 2-(tert-butoxy)-2-{7-[(2-fluorophenyl)methoxy]-2-methyl-4-(5-methyl-3,4-dihydro-2H-1-benzopyran-6-yl)-1-oxo-1,2-dihydroisoquinolin-3-yl}acetic acid] | 50 |
| COc1ccc2c(-c3ccc4c(c3C)CCCO4)c(C(OC(C)(C)C)C(=O)O)n(C)c(=O)c2c1 (stereo not shown) [Example 76, 2-(tert-butoxy)-2-[7-methoxy-2-methyl-4-(5-methyl-3,4-dihydro-2H-1-benzopyran-6-yl)-1-oxo-1,2-dihydroisoquinolin-3-yl]acetic acid] | 120 |
| Cc1ccc(-c2c(C(OC(C)(C)C)C(=O)O)n(C)c(=O)c3cc(CN(Cc4ccccn4)Cc4ccccn4)ccc23)cc1C (stereo not shown) [Example 182, 2-(7-((bis(pyridin-2-ylmethyl)amino)methyl)-4-(3,4-dimethylphenyl)-2-methyl-1-oxo-1,2-dihydroisoquinolin-3-yl)-2-(tert-butoxy)acetic acid] | 1380 |
| Cc1c(-c2c(C(OC(C)(C)C)C(=O)O)n(C)c(=O)c3cc(OCc4ccccc4)ccc23)ccc2c1CCCO2 (stereo not shown) [Example 88, 2-[7-(benzyloxy)-2-methyl-4-(5-methyl-3,4-dihydro-2H-1-benzopyran-6-yl)-1-oxo-1,2-dihydroisoquinolin-3-yl]-2-(tert-butoxy)acetic acid] | 110 |
| Cc1c(-c2c(C(OC(C)(C)C)C(=O)O)n(C)c(=O)c3cc(OCc4cccc(F)c4)ccc23)ccc2c1CCCO2 (stereo not shown) [Example 104, 2-(tert-butoxy)-2-{7-[(3-fluorophenyl)methoxy]-2-methyl-4-(5-methyl-3,4-dihydro-2H-1-benzopyran-6-yl)-1-oxo-1,2-dihydroisoquinolin-3-yl}acetic acid] | 60 |
| CC(C)(C)OC(C(=O)O)c1c(-c2ccc3c(c2)CCCO3)c2ccccc2c(=O)n1C1CC1 (stereo not shown) [Example 30, 2-(tert-butoxy)-2-[2-cyclopropyl-4-(3,4-dihydro-2H-1-benzopyran-6-yl)-1-oxo-1,2-dihydroisoquinolin-3-yl]acetic acid] | 38300 |
| Cc1c(-c2c([C@H](OC(C)(C)C)C(=O)N(C)O)n(C)c(=O)c3ccccc23)cc(F)c2c1CCCO2 (atropisomer, axis not shown; (M)) [Example 214, (S)(M)-2-(tert-butoxy)-2-(4-(8-fluoro-5-methylchroman-6-yl)-2-methyl-1-oxo-1,2-dihydroisoquinolin-3-yl)-N-hydroxy-N-methylacetamide] | 4840 |
